Measured values reported in ChEMBL document CHEMBL1201862, “PubChem BioAssay data set” (2004).
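How tested: cells in 96-well plates exposed to compound for 48 hours at five concentrations. Abbreviation: GI50, concentration required for 50% inhibition of growth.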 The source made the active and inactive calls. Cut-off read from the data, not from the text of the source: active = GI50 up to about 1.1 µM and inactive = higher. Where a SMILES comes first, the peptide text is derived from it. Square brackets hold non-standard residues; d marks the D form. Peptide text beside a SMILES is read from it.

Legend:
Test in all cases: DTP human tumour cell line panel, 48 h
[1] = tested on: SW-620
[2] = tested on: HL-60
[3] = tested on: HCC 2998
[4] = tested on: SK-MEL-28
[5] = tested on: SN12C
[6] = tested on: KM12
[7] = tested on: A498
[8] = tested on: NCI/ADR-RES
[9] = tested on: CAKI-1
[10] = tested on: K562
[11] = tested on: SNB-75
[12] = tested on: OVCAR-3
[13] = tested on: SK-OV-3
[14] = tested on: IGROV-1
[15] = tested on: OVCAR-8
[16] = tested on: RXF 393
[17] = tested on: SF-539
[18] = tested on: OVCAR-5
[19] = tested on: ACHN
[20] = tested on: Hs-578T

Compound | GI50 [1] | GI50 [2] | GI50 [3] | GI50 [4] | GI50 [5] | GI50 [6] | GI50 [7] | GI50 [8] | GI50 [9] | GI50 [10] | GI50 [11] | GI50 [12] | GI50 [13] | GI50 [14] | GI50 [15] | GI50 [16] | GI50 [17] | GI50 [18] | GI50 [19] | GI50 [20]
O=C(CCN1CCOCC1)C(=Cc1ccccc1)C(=O)CCN1CCOCC1 | 1.92 µM (inactive) | 1.53 µM (inactive) | 13.7 µM (inactive) | 2.38 µM (inactive) | 2.96 µM (inactive) | 5.01 µM (inactive) | 17.3 µM (inactive) | 2.46 µM (inactive) | 3.99 µM (inactive) | 0.836 µM (active) | 15.5 µM (inactive) | 3.97 µM (inactive) | 16.6 µM (inactive) | 6.78 µM (inactive) | 2.91 µM (inactive) | 1.68 µM (inactive) | 3.44 µM (inactive) | 19.2 µM (inactive) |  | 
CN(C)c1cccc(OC(=O)NCCCl)c1 | > 100 µM (inactive) | > 100 µM (inactive) | > 100 µM (inactive) | > 100 µM (inactive) | > 100 µM (inactive) | > 100 µM (inactive) | > 100 µM (inactive) | > 100 µM (inactive) | > 100 µM (inactive) | > 100 µM (inactive) | 63.8 µM (inactive) | > 100 µM (inactive) | > 100 µM (inactive) | > 100 µM (inactive) | > 100 µM (inactive) |  | > 100 µM (inactive) | > 100 µM (inactive) |  | 
CCc1ccccc1NC(=O)C1=C(C)NC(C)=C(C(=O)Nc2ccccc2CC)C1c1ccccc1Cl | > 100 µM (inactive) | 64.6 µM (inactive) | > 100 µM (inactive) | > 100 µM (inactive) | > 100 µM (inactive) | > 100 µM (inactive) | 18.7 µM (inactive) |  | > 100 µM (inactive) | > 100 µM (inactive) | 71.6 µM (inactive) | > 100 µM (inactive) | > 100 µM (inactive) | > 100 µM (inactive) | > 100 µM (inactive) | > 100 µM (inactive) | > 100 µM (inactive) | > 100 µM (inactive) | 47.4 µM (inactive) | 
FC(F)(Sc1ncccn1)c1nc2ccccc2o1 | > 100 µM (inactive) |  | > 100 µM (inactive) | > 100 µM (inactive) | > 100 µM (inactive) | > 100 µM (inactive) | > 100 µM (inactive) | > 100 µM (inactive) | > 100 µM (inactive) | 77.4 µM (inactive) | 22 µM (inactive) | > 100 µM (inactive) | > 100 µM (inactive) | > 100 µM (inactive) | > 100 µM (inactive) | 79.3 µM (inactive) | > 100 µM (inactive) | > 100 µM (inactive) | > 100 µM (inactive) | 
C=C1CCC2C(C)(CO)C(O)CCC2(C)C1CC(O)/C(=C/CO)C(=O)O (centres undefined) | > 100 µM (inactive) | > 100 µM (inactive) | > 100 µM (inactive) |  | > 100 µM (inactive) | > 100 µM (inactive) | > 100 µM (inactive) |  | > 100 µM (inactive) | > 100 µM (inactive) | > 100 µM (inactive) |  | > 100 µM (inactive) | > 100 µM (inactive) | > 100 µM (inactive) | > 100 µM (inactive) | > 100 µM (inactive) | > 100 µM (inactive) | > 100 µM (inactive) | 
CCS(=O)(=O)Nc1ccc(Nc2c3ccccc3nc3ccccc23)c(OC)c1 | 0.527 µM (active) | 0.0168 µM (active) | 1.72 µM (inactive) | 3.03 µM (inactive) | 0.166 µM (active) | 1.75 µM (inactive) | 0.24 µM (active) | 5 µM (inactive) | 0.0962 µM (active) | 0.681 µM (active) | 0.284 µM (active) | 2.03 µM (inactive) | 0.203 µM (active) | 7.94 µM (inactive) | 0.885 µM (active) | 1.99 µM (inactive) | 0.295 µM (active) | 3.23 µM (inactive) |  | 
Cc1cc(/N=N/c2ccc(/N=N/c3c(O)c(S(=O)(=O)O)cc4cc(S(=O)(=O)O)ccc34)cc2C)ccc1/N=N/c1ccc2cc(S(=O)(=O)O)cc(S(=O)(=O)O)c2c1 | > 100 µM (inactive) | > 100 µM (inactive) | > 100 µM (inactive) | > 100 µM (inactive) | > 100 µM (inactive) | > 72.4 µM (inactive) | > 100 µM (inactive) | > 100 µM (inactive) |  | > 100 µM (inactive) | > 100 µM (inactive) | > 100 µM (inactive) | > 47 µM (inactive) | > 100 µM (inactive) | > 31.6 µM (inactive) | > 100 µM (inactive) | > 100 µM (inactive) | > 100 µM (inactive) |  | 
CCOC(=O)C(Cc1cn(C(C)=O)c2ccccc12)P(=O)(OCC)OCC (centres undefined) | > 100 µM (inactive) |  | > 100 µM (inactive) | > 100 µM (inactive) | > 100 µM (inactive) |  |  | > 100 µM (inactive) | > 100 µM (inactive) | > 100 µM (inactive) | > 100 µM (inactive) | > 100 µM (inactive) | > 100 µM (inactive) | > 100 µM (inactive) | > 100 µM (inactive) |  |  | > 100 µM (inactive) | > 100 µM (inactive) | > 100 µM (inactive)
CC1NC(=O)CNC(=O)CNC(=O)C(Cc2ccc(O)cc2)NC(=O)C(C(C)C)NC(=O)C(C)NC1=O (centres undefined) (cyclo(GGAAVY); configuration not given here) | > 100 µM (inactive) | > 100 µM (inactive) | > 100 µM (inactive) | > 100 µM (inactive) | > 100 µM (inactive) | > 100 µM (inactive) | > 100 µM (inactive) | > 100 µM (inactive) | > 100 µM (inactive) |  | > 100 µM (inactive) | > 100 µM (inactive) | > 100 µM (inactive) | > 100 µM (inactive) | > 100 µM (inactive) |  | > 100 µM (inactive) | > 100 µM (inactive) |  | 
O=Cc1cc(O)c(O)c(/C=N/n2c3ccccc3c3ccccc32)c1 | 5.15 µM (inactive) | 2.33 µM (inactive) | 11.7 µM (inactive) | 12.9 µM (inactive) | 4.56 µM (inactive) | 7.76 µM (inactive) | 15.9 µM (inactive) |  | 16.1 µM (inactive) | 4.11 µM (inactive) | 2.65 µM (inactive) | 2.44 µM (inactive) | 6.55 µM (inactive) |  | 2.63 µM (inactive) | 5.57 µM (inactive) | 6.38 µM (inactive) | 17.9 µM (inactive) | 4.25 µM (inactive) | 19.3 µM (inactive)
Cc1cc(Cl)ccc1NC(=O)CC1SC(Nc2ccccc2Cl)=NC1=O (centres undefined) | 37.2 µM (inactive) | 15.9 µM (inactive) | 52.2 µM (inactive) | 66.2 µM (inactive) | 33.8 µM (inactive) | 33.3 µM (inactive) | 65.6 µM (inactive) |  | 41.7 µM (inactive) | 37.8 µM (inactive) | 38.7 µM (inactive) | 28.3 µM (inactive) | 49.3 µM (inactive) | 49.5 µM (inactive) | 29.6 µM (inactive) | 26.1 µM (inactive) | 20.3 µM (inactive) | > 100 µM (inactive) | 43.3 µM (inactive) | 
CC(C)C[C@H](NC(=O)[C@H](CC(C)C)NC(=O)[C@@H](Cc1c[nH]c2ccccc12)NC(=O)[C@H](Cc1ccccc1)NC(=O)[C@@H](Cc1c[nH]c2ccccc12)NC(=O)[C@H](CCC(N)=O)NC(=O)[C@@H](CCC(N)=O)NC(=O)[C@@H]1CCCN1C(=O)[C@@H](CCCCN)NC(=O)[C@H]1CCCN1C(=O)[C@H](N)CCCN=C(N)N)C(N)=O (H-[dR][dP][dK]P[dQ]Q[dW]F[dW]LL-NH2) | > 100 µM (inactive) | > 100 µM (inactive) | > 100 µM (inactive) | > 100 µM (inactive) | > 100 µM (inactive) | > 100 µM (inactive) | 32.3 µM (inactive) | > 100 µM (inactive) |  | > 100 µM (inactive) | > 100 µM (inactive) | > 86.3 µM (inactive) | > 100 µM (inactive) | > 100 µM (inactive) | > 100 µM (inactive) | > 100 µM (inactive) | > 61.4 µM (inactive) | > 100 µM (inactive) |  | 
O=C(Nc1ccccc1-c1nn(CN2CCNCC2)c(=S)n(CN2CCNCC2)c1=O)C(F)(F)F | 10.1 µM (inactive) | 16.4 µM (inactive) | 19.1 µM (inactive) | 18.9 µM (inactive) | 19.4 µM (inactive) | 19.7 µM (inactive) | 18.2 µM (inactive) |  | 23.9 µM (inactive) | 21.9 µM (inactive) | 22.6 µM (inactive) | 20.7 µM (inactive) | 20 µM (inactive) | 22.3 µM (inactive) | 20.6 µM (inactive) | 16.3 µM (inactive) | 18.4 µM (inactive) | 22.9 µM (inactive) | 25.3 µM (inactive) | 
O=C(CCN(C(=O)O)S(=O)(=O)c1ccc(NC(=O)c2ccccc2)cc1)Nc1ccccc1 | > 55 µM (inactive) | > 61.8 µM (inactive) | > 100 µM (inactive) | > 100 µM (inactive) | > 100 µM (inactive) | > 100 µM (inactive) | > 100 µM (inactive) |  | > 100 µM (inactive) | > 59.3 µM (inactive) | > 100 µM (inactive) | > 100 µM (inactive) | > 100 µM (inactive) | > 100 µM (inactive) | > 96.2 µM (inactive) | > 100 µM (inactive) | > 100 µM (inactive) | > 100 µM (inactive) | > 100 µM (inactive) | 
O=C(NC/C=C/CO)c1ccccc1 | > 100 µM (inactive) | > 100 µM (inactive) | > 100 µM (inactive) | > 100 µM (inactive) | > 100 µM (inactive) | > 100 µM (inactive) | > 100 µM (inactive) | > 100 µM (inactive) |  | > 100 µM (inactive) | 65.8 µM (inactive) | > 100 µM (inactive) | > 100 µM (inactive) | > 100 µM (inactive) | > 100 µM (inactive) | > 100 µM (inactive) | > 100 µM (inactive) | > 100 µM (inactive) |  | 
